US20240398812A1 (Caraway Therapeutics, Inc., priority 2021, published 2024)

Columns and labels:
Assay type in all cases: cell-based
Conditions in all cases: Table 3, compounds 201-283
human TRPML1 = human TRPML1 (Homo sapiens, UniProt Q9GZU1); test: Fluorescent TRPML1 assay (Fluo4-AM calcium fluorescence, HEK-293 Trex cells)
How it was run: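 Tet-inducible HEK-293 Trex cells stably expressing surface-targeted mutant human TRPML1, induced with 0.5 ug/mL doxycycline overnight, loaded with Fluo4-AM and suspended in Ringer's with 10 mM calcium. Compounds tested from 20 μM to 6 nM final, half-log steps, in triplicate; fluorescence (ex 480/em 540) normalised to plate controls, EC50 by non-linear regression.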

TRPML2 = biological target: T1, TRPML2 (Homo sapiens, UniProt Q8IZK6); test: Fluorescent TRPML2 assay (as for TRPML1)
T1 construct: expressed in transfected cells
T1 sequence (Q8IZK6 1-566): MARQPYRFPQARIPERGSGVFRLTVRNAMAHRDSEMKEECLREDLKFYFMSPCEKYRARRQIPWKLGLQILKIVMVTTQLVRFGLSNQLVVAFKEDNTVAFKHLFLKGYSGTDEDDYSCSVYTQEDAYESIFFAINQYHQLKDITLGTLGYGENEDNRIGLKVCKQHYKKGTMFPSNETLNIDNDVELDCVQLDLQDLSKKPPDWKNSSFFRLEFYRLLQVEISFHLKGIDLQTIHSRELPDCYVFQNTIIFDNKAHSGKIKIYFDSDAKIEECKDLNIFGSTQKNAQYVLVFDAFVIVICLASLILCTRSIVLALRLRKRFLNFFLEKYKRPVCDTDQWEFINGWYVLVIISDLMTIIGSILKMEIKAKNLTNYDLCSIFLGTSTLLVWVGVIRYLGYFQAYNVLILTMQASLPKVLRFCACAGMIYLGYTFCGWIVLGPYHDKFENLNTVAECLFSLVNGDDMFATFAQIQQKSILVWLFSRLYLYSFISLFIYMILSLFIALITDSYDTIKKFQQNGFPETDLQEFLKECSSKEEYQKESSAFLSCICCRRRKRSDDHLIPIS
How it was run: (§1)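 HEK-293 Trex cells with tet-inducible (0.5 ug/mL doxycycline, overnight) surface-targeted mutant channel, Fluo4-AM loaded, suspended in Ringer's with 10 mM calcium. Compounds tested 20 µM to 6 nM final, half-log steps, triplicate; fluorescence at ex 480/em 540 nm. EC50 by non-linear regression of percent activity versus plate controls.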

TRPML3 = biological target: T2, TRPML3 (Homo sapiens, UniProt Q8TDD5); test: Fluorescent TRPML3 assay (as for TRPML1)
T2 construct: expressed in transfected cells
T2 sequence (Q8TDD5 1-553): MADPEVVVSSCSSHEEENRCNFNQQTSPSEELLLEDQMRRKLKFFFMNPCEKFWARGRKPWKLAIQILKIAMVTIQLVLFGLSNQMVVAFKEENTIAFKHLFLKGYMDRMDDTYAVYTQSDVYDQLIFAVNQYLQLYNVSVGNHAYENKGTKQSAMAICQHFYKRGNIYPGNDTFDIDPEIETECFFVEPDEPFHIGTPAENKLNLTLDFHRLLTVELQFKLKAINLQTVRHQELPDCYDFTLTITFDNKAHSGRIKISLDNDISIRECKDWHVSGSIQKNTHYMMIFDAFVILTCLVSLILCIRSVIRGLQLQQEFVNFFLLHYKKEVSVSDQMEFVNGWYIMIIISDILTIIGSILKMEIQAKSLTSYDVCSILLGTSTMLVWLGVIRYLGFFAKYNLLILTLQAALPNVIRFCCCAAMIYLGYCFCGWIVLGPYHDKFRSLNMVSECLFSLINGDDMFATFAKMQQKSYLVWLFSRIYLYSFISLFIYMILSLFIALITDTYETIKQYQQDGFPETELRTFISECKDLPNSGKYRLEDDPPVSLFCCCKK
How it was run: as §1

Chain of human TRPML1 (Q9GZU1 whole entry L15A/L16A/L577A/L578A, form open): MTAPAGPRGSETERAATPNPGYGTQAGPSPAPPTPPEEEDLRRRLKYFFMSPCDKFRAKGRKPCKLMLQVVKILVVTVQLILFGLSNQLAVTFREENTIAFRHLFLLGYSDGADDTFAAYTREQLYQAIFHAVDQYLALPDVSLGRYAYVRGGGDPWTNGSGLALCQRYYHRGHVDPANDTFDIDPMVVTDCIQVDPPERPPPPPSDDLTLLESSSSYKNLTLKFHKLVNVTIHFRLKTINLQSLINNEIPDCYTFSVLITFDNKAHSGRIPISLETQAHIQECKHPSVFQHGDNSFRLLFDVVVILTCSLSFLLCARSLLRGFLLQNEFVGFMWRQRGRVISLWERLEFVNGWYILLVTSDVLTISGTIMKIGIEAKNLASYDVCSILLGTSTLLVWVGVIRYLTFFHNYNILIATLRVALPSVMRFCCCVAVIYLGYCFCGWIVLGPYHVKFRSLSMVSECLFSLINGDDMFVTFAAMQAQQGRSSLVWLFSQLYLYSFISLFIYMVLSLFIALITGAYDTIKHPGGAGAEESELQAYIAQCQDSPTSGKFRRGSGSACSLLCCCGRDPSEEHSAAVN

Row | SMILES | EC50 (human TRPML1) [nM] | EC50 (TRPML2) [nM] | EC50 (TRPML3) [nM]
1 | C[C@@H]1CN(c2ncnc3c2c(C2CCC2)cn3-c2cccc(C(F)(F)F)c2)[C@@H](C)CN1C(=O)C1(F)CC1 [Compound 260, ((2R,5S)-4-(5-cyclobutyl-7-(3-(trifluoromethyl)phenyl)-7H-pyrrolo[2,3-d]pyrimidin-4-yl)-2,5-dimethylpiperazin-1-yl)(1-fluorocyclopropyl)methanone] | 100 to 500 | > 2000 | 500 to 2000
2 | C[C@@H]1CN(c2ncnc3c2c(C2CCC2)cn3-c2cccc(C(F)(F)F)c2)[C@@H](C)CN1C(=O)C(C)(C)C [Compound 261, 1-((2R,5S)-4-(5-cyclobutyl-7-(3-(trifluoromethyl)phenyl)-7H-pyrrolo[2,3-d]pyrimidin-4-yl)-2,5-dimethylpiperazin-1-yl)-2,2-dimethylpropan-1-one] | < 100 | > 2000 | 500 to 2000
3 | C[C@@H]1CN(c2ncnc3c2c(C2CCC2)cn3-c2cccc(C(F)(F)F)c2)[C@@H](C)CN1C(=O)CC(C)(C)C(F)(F)F [Compound 262, 1-((2R,5S)-4-(5-cyclobutyl-7-(3-(trifluoromethyl)phenyl)-7H-pyrrolo[2,3-d]pyrimidin-4-yl)-2,5-dimethylpiperazin-1-yl)-4,4,4-trifluoro-3,3-dimethylbutan-1-one] | 100 to 500 | 500 to 2000 | 500 to 2000
4 | C[C@@H]1CN(c2ncnc3c2c(C2CCC2)cn3-c2cccc(C(F)(F)F)c2)[C@@H](C)CN1C(=O)C(C)(C)C(F)(F)F [Compound 263, 1-((2R,5S)-4-(5-cyclobutyl-7-(3-(trifluoromethyl)phenyl)-7H-pyrrolo[2,3-d]pyrimidin-4-yl)-2,5-dimethylpiperazin-1-yl)-3,3,3-trifluoro-2,2-dimethylpropan-1-one] | 100 to 500 | 500 to 2000 | < 100
5 | COC(C)(C)C(=O)N1C[C@H](C)N(c2ncnc3c2c(C2CC2)cn3-c2cc(C#N)ccn2)C[C@H]1C [Compound 264, 2-(5-cyclopropyl-4-((2S,5R)-4-(2-methoxy-2-methylpropanoyl)-2,5-dimethylpiperazin-1-yl)-7H-pyrrolo[2,3-d]pyrimidin-7-yl)isonicotinonitrile] | < 100 | 500 to 2000 | < 100
6 | COC(C)(C)C(=O)N1CCN(c2ncnc3c2c(C2CC2)cn3-c2cc(C#N)ccn2)C[C@H]1C [Compound 265, (R)-2-(5-cyclopropyl-4-(4-(2-methoxy-2-methylpropanoyl)-3-methylpiperazin-1-yl)-7H-pyrrolo [2,3-d]pyrimidin-7-yl)isonicotinonitrile] | < 100 | 100 to 500 | < 100
7 | COC(C)(C)C(=O)N1CCN(c2ncnc3c2c(-c2ccccc2F)cn3-c2cc(C#N)ccn2)C[C@H]1C [Compound 266, (R)-2-(5-(2-fluorophenyl)-4-(4-(2-methoxy-2-methylpropanoyl)-3-methylpiperazin-1-yl)-7H-pyrrolo[2,3-d]pyrimidin-7-yl)isonicotinonitrile] | < 100 | 100 to 500 | < 100
8 | COC1(C(=O)N2C[C@H](C)N(c3ncnc4c3c(-c3ccccc3F)cn4-c3cc(C#N)ccn3)C[C@H]2C)CC1 [Compound 267, 2-(5-(2-fluorophenyl)-4-((2S,5R)-4-(1-methoxycyclopropane-1-carbonyl)-2,5-dimethylpiperazin-1-yl)-7H-pyrrolo [2,3-d]pyrimidin-7-yl)isonicotinonitrile] | < 100 | 100 to 500 | < 100
9 | COC(C)(C)C(=O)N1C[C@H](C)N(c2ncnc3c2c(N2CCC2)cn3-c2cc(C#N)ccn2)C[C@H]1C [Compound 268, 2-(5-(azetidin-1-yl)-4-((2S,5R)-4-(2-methoxy-2-methylpropanoyl)-2,5-dimethylpiperazin-1-yl)-7H-pyrrolo[2,3-d]pyrimidin-7-yl)isonicotinonitrile] | < 100 | 500 to 2000 | < 100
